Reference: ChEMBL document CHEMBL1201862, “PubChem BioAssay data set” (2004)
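A five-concentration, 48-hour dose response in 96-well plates underlies each endpoint, interpolated linearly between surrounding concentrations. At the GI50, growth is halved.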 Calls of active or inactive are those of the source. Rule as the data show it: active = GI50 up to about 1.1 µM and inactive = higher.

Tests used:
Assay in all cases: NCI-60 cell line screen, 48 h
HCC 2998 = tested on: HCC 2998
NCI/ADR-RES = tested on: NCI/ADR-RES
HT-29 = tested on: HT-29
M14 = tested on: M14
MOLT-4 = tested on: MOLT-4
SF-539 = tested on: SF-539
TK-10 = tested on: TK-10
HL-60 = tested on: HL-60
OVCAR-4 = tested on: OVCAR-4
Hs-578T = tested on: Hs-578T
CAKI-1 = tested on: CAKI-1
MDA-N = tested on: MDA-N
MDA-MB-435 = tested on: MDA-MB-435
PC-3 = tested on: PC-3
NCI-H226 = tested on: NCI-H226
RPMI-8226 = tested on: RPMI-8226
SK-MEL-5 = tested on: SK-MEL-5
OVCAR-5 = tested on: OVCAR-5
SNB-75 = tested on: SNB-75
HCT-116 = tested on: HCT-116
HOP-62 = tested on: HOP-62
EKVX = tested on: EKVX
MCF7 = tested on: MCF7
LOX IMVI = tested on: LOX IMVI
NCI-H23 = tested on: NCI-H23
KM12 = tested on: KM12
COLO 205 = tested on: COLO 205
IGROV-1 = tested on: IGROV-1
786-0 = tested on: 786-0
SR = tested on: SR
SF-268 = tested on: SF-268
HCT-15 = tested on: HCT-15
T47D = tested on: T47D
NCI-H460 = tested on: NCI-H460
ACHN = tested on: ACHN
BT-549 = tested on: BT-549
Malme-3M = tested on: Malme-3M
SN12C = tested on: SN12C
UACC-257 = tested on: UACC-257
SW-620 = tested on: SW-620
MDA-MB-231 = tested on: MDA-MB-231
A498 = tested on: A498
SK-MEL-2 = tested on: SK-MEL-2
OVCAR-3 = tested on: OVCAR-3
U-251 = tested on: U-251
SNB-19 = tested on: SNB-19
SF-295 = tested on: SF-295
A549 = tested on: A549
UO-31 = tested on: UO-31
HOP-92 = tested on: HOP-92
OVCAR-8 = tested on: OVCAR-8
RXF 393 = tested on: RXF 393
SK-OV-3 = tested on: SK-OV-3
UACC-62 = tested on: UACC-62
SK-MEL-28 = tested on: SK-MEL-28
DU-145 = tested on: DU-145
CCRF-CEM = tested on: CCRF-CEM
K562 = tested on: K562

COc1cc2cc(C(=O)N3CC(CCl)c4c3cc(NC(=O)OCc3ccc([N+](=O)[O-])cc3)c3ccccc43)[nH]c2c(OC)c1OC (stereo not drawn)
GI50 (HCC 2998): 0.0226 µM (active)
GI50 (NCI/ADR-RES): 3.67 µM (inactive)
GI50 (HT-29): > 54.2 µM (inactive)
GI50 (M14): 29 µM (inactive)
GI50 (MOLT-4): 9.73 µM (inactive)
GI50 (SF-539): > 48.6 µM (inactive)
GI50 (TK-10): 0.327 µM (active)
GI50 (HL-60): 0.11 µM (active)
GI50 (OVCAR-4): > 100 µM (inactive)
GI50 (Hs-578T): > 53.1 µM (inactive)
GI50 (CAKI-1): 0.153 µM (active)
GI50 (MDA-N): > 100 µM (inactive)
GI50 (MDA-MB-435): > 100 µM (inactive)
GI50 (PC-3): > 60 µM (inactive)
GI50 (NCI-H226): > 100 µM (inactive)
GI50 (RPMI-8226): 13.3 µM (inactive)
GI50 (SK-MEL-5): 46.7 µM (inactive)
GI50 (OVCAR-5): 29.4 µM (inactive)
GI50 (SNB-75): 20.5 µM (inactive)
GI50 (HCT-116): 14.7 µM (inactive)
GI50 (HOP-62): 16.3 µM (inactive)
GI50 (EKVX): 43 µM (inactive)
GI50 (MCF7): 36.1 µM (inactive)
GI50 (LOX IMVI): 38.7 µM (inactive)
GI50 (NCI-H23): 0.158 µM (active)
GI50 (KM12): > 42.5 µM (inactive)
GI50 (COLO 205): > 100 µM (inactive)
GI50 (IGROV-1): > 43.9 µM (inactive)
GI50 (786-0): 0.785 µM (active)
GI50 (SR): 0.0432 µM (active)
GI50 (SF-268): 24.6 µM (inactive)
GI50 (HCT-15): > 50.2 µM
GI50 (T47D): 24.3 µM (inactive)
GI50 (NCI-H460): < 0.0173 µM (active)
GI50 (ACHN): < 0.0116 µM (active)
GI50 (BT-549): 97.3 µM (inactive)
GI50 (Malme-3M): > 100 µM (inactive)
GI50 (SN12C): > 100 µM (inactive)
GI50 (UACC-257): > 71.3 µM (inactive)
GI50 (SW-620): 28.2 µM (inactive)
GI50 (MDA-MB-231): 44.9 µM (inactive)
GI50 (A498): < 0.01 µM (active)
GI50 (SK-MEL-2): > 69.2 µM (inactive)
GI50 (OVCAR-3): > 100 µM (inactive)
GI50 (U-251): 38.5 µM (inactive)
GI50 (SNB-19): > 100 µM (inactive)
GI50 (SF-295): 17.2 µM (inactive)
GI50 (A549): 8.65 µM (inactive)
GI50 (UO-31): 0.125 µM (active)
GI50 (HOP-92): > 45.7 µM (inactive)
GI50 (OVCAR-8): 1.1 µM (active)
GI50 (RXF 393): 14 µM (inactive)
GI50 (SK-OV-3): < 0.01 µM (active)
GI50 (UACC-62): > 38 µM (inactive)
GI50 (SK-MEL-28): > 100 µM (inactive)
GI50 (DU-145): 0.108 µM (active)
GI50 (CCRF-CEM): 8.91 µM (inactive)

COc1cc(C(=O)C2C(=O)c3ccccc3C2C2(O)c3ccccc3CC2C(O)c2cc(OC)c(OC)c(OC)c2)cc(OC)c1OC (stereo not drawn)
GI50 (HCC 2998): > 100 µM (inactive)
GI50 (NCI/ADR-RES): > 100 µM (inactive)
GI50 (HT-29): > 100 µM (inactive)
GI50 (M14): > 100 µM (inactive)
GI50 (MOLT-4): > 100 µM (inactive)
GI50 (SF-539): 37.2 µM (inactive)
GI50 (TK-10): > 100 µM (inactive)
GI50 (OVCAR-4): > 100 µM (inactive)
GI50 (Hs-578T): > 100 µM (inactive)
GI50 (CAKI-1): > 100 µM (inactive)
GI50 (MDA-N): > 100 µM (inactive)
GI50 (MDA-MB-435): > 100 µM (inactive)
GI50 (PC-3): > 100 µM (inactive)
GI50 (NCI-H226): > 100 µM (inactive)
GI50 (K562): > 100 µM (inactive)
GI50 (RPMI-8226): 15.2 µM (inactive)
GI50 (SK-MEL-5): > 100 µM (inactive)
GI50 (OVCAR-5): > 100 µM (inactive)
GI50 (SNB-75): 20.3 µM (inactive)
GI50 (HCT-116): > 100 µM (inactive)
GI50 (HOP-62): 17.6 µM (inactive)
GI50 (EKVX): > 100 µM (inactive)
GI50 (MCF7): > 100 µM (inactive)
GI50 (LOX IMVI): > 100 µM (inactive)
GI50 (NCI-H23): > 100 µM (inactive)
GI50 (KM12): > 100 µM (inactive)
GI50 (COLO 205): > 100 µM (inactive)
GI50 (IGROV-1): > 100 µM (inactive)
GI50 (786-0): > 100 µM (inactive)
GI50 (SR): > 100 µM (inactive)
GI50 (SF-268): 91.4 µM (inactive)
GI50 (HCT-15): > 100 µM
GI50 (T47D): > 100 µM (inactive)
GI50 (NCI-H460): > 100 µM (inactive)
GI50 (ACHN): > 100 µM (inactive)
GI50 (BT-549): > 100 µM (inactive)
GI50 (Malme-3M): > 100 µM (inactive)
GI50 (SN12C): > 100 µM (inactive)
GI50 (UACC-257): > 100 µM (inactive)
GI50 (SW-620): > 100 µM (inactive)
GI50 (MDA-MB-231): 94.2 µM (inactive)
GI50 (A498): > 100 µM (inactive)
GI50 (SK-MEL-2): > 100 µM (inactive)
GI50 (OVCAR-3): > 100 µM (inactive)
GI50 (U-251): 41.3 µM (inactive)
GI50 (SNB-19): > 100 µM (inactive)
GI50 (SF-295): 74.6 µM (inactive)
GI50 (A549): > 100 µM (inactive)
GI50 (UO-31): > 100 µM (inactive)
GI50 (HOP-92): 51.2 µM (inactive)
GI50 (OVCAR-8): 62.4 µM (inactive)
GI50 (RXF 393): > 100 µM (inactive)
GI50 (SK-OV-3): 32.1 µM (inactive)
GI50 (UACC-62): > 100 µM (inactive)
GI50 (SK-MEL-28): > 100 µM (inactive)
GI50 (DU-145): > 100 µM (inactive)
